# Experimental data as given in US20130203822A1, “COMPOUNDS FOR TREATMENT OF TUMORS BEARING D[…] ONCOPROTEINS” (priority 2010, published 2013).
# Where a name gives a salt, the structure may show the parent alone.
# Columns and labels:
# MYCN protein = test: immunofluorescence analysis of MYCN expression; assay type: cell-based, human; conditions: CHP134 cells, 24 h, different concentration of CPX
# Method: To verify if the CPX enhancement effects on luciferase activity was accompanied by an increase in MYCN protein levels, an immunofluorescence analysis were performed on CHP134 cells plated in 96-well imaging plates (BD) and treated after adhesion for 24 h at different concentration of CPX. Cells were fixed by paraformaldehyde (PFA) 3.7%, permeabilized with 0.1% Triton X100, incubated with anti-MYCN mouse monoclonal antibody (ab16898, ABCAM) and stained with Alexafluor 488 rabbit anti-mouse secondary antibody.
# Images were acquired by Operetta (Perkin Elmer) high content system and analyzed by the Harmony software.
# Results represent fluorescence intensity in the nuclear area previously identified by DAPI staining.
# MYCN 3′UTR = test: luciferase reporter screening and counter-screening in CHP134-MYCN and CHP134-CTRL stable clones; assay type: cell-based, human; conditions: 24 h; for dependence of luciferase reporter upregulation on MYCN 3′UTR (counter-screening): 2 uM, CHP134-MYCN#3 versus CHP134-CTRL#19
# Method: Reporter constructs containing the firefly luciferase reporter gene under the control of the CMV viral promoter and followed by either the whole MYCN 3′UTR (pGL4.26-MYCN3UTR) or the only SV40 poly(A) region (pGL4.26-CTRL) as a control were produced as disclosed above.
# The CHP134 neuroblastoma cell line was used to generate stable transfection clones as disclosed in Example 3.
# The screening was carried out in the CHP134-MYCN#3 stable clone with the Spectrum Collection small molecule library (MicroSource Discovery) composed of 2000 compounds stored at 10 mM in DMSO: 800 drugs that have been introduced in the US, 200 drugs that are limited in use to Europe and Japan, 580 natural products, 420 compounds with reported biological activities.
# The assay was run in triplicates in 96-well plates. CHP134-MYCN stable clone cells were trypsinized, harvested and resuspended in culture medium. Tecan Multichannel arm (MCA96) of a Tecan EVO 200 robot (Tecan) was used to add 150 uL containing 15000 cells to the 96-well white CulturePlate-96 (Perkin Elmer).
# After adhesion, the 10 mM compounds were diluted to 75 uM in PBS and immediately pipetted into the 96 wells in order to have a final concentration of 2 uM in the cells. Baseline controls were obtained treating the first column wells with PBS+DMSO at the same final concentration of the samples.
# Luciferase activity was assessed using OneGlow Luciferase assay (Promega) according to the manufacturer's method, after 24 h of incubation at 37° with 5% CO2 and 100% relative humidity. Luminescence signal was read on a Tecan F200 multiplate reader (Tecan) integrated with the robot.
# The majority of the hits (Table 1) were then checked for reproducibility and cytotoxic activity, the most interesting compounds were also tested for dose-responsiveness. The same hits were subsequently subjected to counter-screening with the stable clone CHP134-CTRL#19 expressing the control pGL4.26-CTRL plasmid, to segregate plasmid promoter-dependent transcriptional control effects.
# To verify the specificity of the CPX effect for the MYCN 3′UTR and its clone-independency, the treatment was repeated with the CHP134-MYCN#3 clone and the CHP134-CTRL#19 clones and with two independent others, again stably transfected with the pGL4.26-MYCN3UTR and the pGL4.26-CTRL plasmids (respectively, CHP134-MYCN#1 and the CHP134-CTRL#17 clones).
# Treatment with CPX 2 uM and measurement of luciferase activity with the OneGlow luciferase assay after 24 h provided a confirmation of the screening results (FIG. 3).
# [1] = rat; cited from earlier work
# CHP134 cells = test: Annexin V-FITC / PI apoptosis assay by flow cytometry; assay type: cell-based, human; conditions: CHP134, 24 and 48 hr, different concentrations
# Method: c) Apoptosis assay was performed by flow cytometry. CHP134 cells were seeded 10 cm-dishes at the concentration 1×10^6 cells under standard culture conditions. In three days cells were treated with CPX at different concentration for 24 and 48 hr. The cells were then harvested, washed with cold PBS and processed for apoptosis assay using the Annexin V-FITC Apoptosis Detection Kit I (BD Biosciences) by following the instructions of the manufacturer. Briefly, cells were stained with FITC-Annexin V and PI (Propidium Iodide) in order to allow for the identification of death cells (FITC and PI positive), viable cells (FITC and PI negative) and pre-apoptotic cells (FITC positive and PI negative). Flow cytometric analysis was performed with the BD FACS Canto (BD Biosciences).
# The results are shown, in FIG. 6. Numbers indicate the percentage of apoptotic/dead cells (P1) and pre-apoptotic cells (P2) respectively.
# [2] = test system: CHP134-MYCN#3 neuroblastoma cell clone; test: WST-1 cell cytotoxicity assay with selected hits at 2 uM; assay type: cell-based, human; conditions: MYCN-amplified neuroblastoma cells, 24 or 48 hours
# Method: a) Cell cytotoxicity was performed by WST1 assay (Roche) following the manufacturer's instruction: 15000 cells were plated in each well of 96-well transparent Spectra Plate (Perkin Elmer) in 150 ul of complete media.
# (§1) After adhesion, cells were treated with the selected drugs (Table 1) at 2 uM concentration and incubated at 37° with 5% CO2 and 100% relative humidity for 24 or 48 hours. At the defined endpoint, 15 uL of WST1 reagent were added and after 4 hours incubation at 37° with 5% CO2 and 100% relative humidity, plates were read for absorbance at 450 nm in a Tecan F200 multiplate reader (Tecan).
# (§2) Different measurements were needed in order to calculate the percentage growth: time zero (Tz: that represent a measurement of the cell population at the time of drug addition), control growth (C: measures the growth of the cells treated with vehicle only after 24 or 48 hours) and test growth (Ti: that represent a measurement of the cell population after 24 or 48 hours). Percentage growth is calculated as:
# [(Ti−Tz)/(C−Tz)]×100 eq. (2)
# for concentrations for which Ti>=Tz;
# for concentrations for which Ti<Tz.
# [3] = humans; deferiprone: iron overload treatment in transfused thalassemia patients; doxorubicin: high dose infusional in tumor bearing patients; cited from earlier work
# [4] = test system: CHP134 and SiMa neuroblastoma cell lines; test: WST-1 dose-response cytotoxicity of ciclopirox olamine and piroctone olamine; assay type: cell-based, human; conditions: 0.33-100 μM, 48 hours
# Method: as §1, with “different concentration of CPX ranging from 66 nM to 66” for “the selected drugs (Table 1) at 2”, “for” for “for 24 or”, “ul” for “uL”
# as §2, with “after” for “after 24 or”, “hours treatment with CPX).” for “hours). Percentage growth is calculated as:”
# Percentage growth is calculated as above by means of eq.s (2) and (3).
# In order to understand if compounds of similar molecular structure to that of CPX could be also effective in inducing a cytotoxic activity, we treated two neuroblastoma cell lines, CHP134 and SiMa, with increasing concentrations of both compounds (0.33-1-3.3-10-33-100 μM), and we measured cytotoxicity after 48 hours as detailed before.
SMILES,dependence of luciferase reporter upregulation on MYCN 3′UTR (counter-screening) (MYCN 3′UTR),acute lethal dose 50 (LD50) [1] [mg/kg],cytotoxicity [2],plasma concentration [3] [µM],other results
"Cc1cc(C2CCCCC2)n(O)c(=O)c1 [ciclopirox olamine, CICLOPIROX OLAMINE]",truly dependent on MYCN 3′UTR,2350,efficient cytotoxicity,,"MYCN nuclear immunostaining (fluorescence intensity in the nuclear area) (MYCN protein): dose-dependent increase; luciferase expression (MYCN 3′UTR; CPX 2 uM, clones CHP134-MYCN#3, CHP134-MYCN#1, CHP134-CTRL#19, CHP134-CTRL#17): clone-independent, MYCN 3′UTR specific effect of increased luciferase expression; effect on cell viability: percentage of apoptotic/dead (P1) and pre-apoptotic (P2) cells (CHP134 cells): increased percentage of apoptotic/dead cells"
"COc1cccc2c1C(=O)c1c(O)c3c(c(O)c1C2=O)C[C@@](O)(C(C)=O)C[C@@H]3O[C@H]1C[C@H](N)[C@H](O)[C@H](C)O1 [daunorubicin, DAUNORUBICIN]",truly dependent on MYCN 3′UTR,,efficient cytotoxicity,,
"Cc1c(O)c(=O)ccn1C [deferiprone, 3-hydroxy-1,2-dimethylpyridin-4-one]",,2000,,≥ 250,
"COc1cccc2c1C(=O)c1c(O)c3c(c(O)c1C2=O)C[C@@](O)(C(=O)CO)C[C@@H]3O[C@H]1C[C@H](N)[C@H](O)[C@H](C)O1 [doxorubicin, DOXORUBICIN]",truly dependent on MYCN 3′UTR,10.5,efficient cytotoxicity,0.1,
"COc1cccc2c1C(=O)c1c(O)c3c(c(O)c1C2=O)C[C@@](O)(C(=O)CO)C[C@@H]3O[C@H]1C[C@H](N)[C@@H](O)[C@H](C)O1 [epirubicin, EPIRUBICIN HYDROCHLORIDE]",,,efficient cytotoxicity,,
Cc1cc(CC(C)CC(C)(C)C)n(O)c(=O)c1.NCCO (stereo not shown) [piroctone olamine],,,,,cytotoxic activity compared with CPX [4]: even stronger activity
